Each compound was assayed on test plant species (assay: Post-emergent herbicidal activity test (greenhouse, foliar spray, visual growth reduction)). Details: post-emergence, 336 h, ECHCG: barnyardgrass (Echinochloa crus-galli), 140 g ai/ha, 14 days after application, read-out: Visual Growth Reduction (%) 14 Days After Application, ECHCG.
Format: in vivo
How it was run: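 Plants grown in greenhouse (15 h photoperiod, 23-29° C day/22-28° C night) to first or second true leaf stage were sprayed overhead with compound in acetone/water/isopropanol/DMSO/crop oil/X-77 carrier at 187 L/ha. Injury was scored visually after 14 d on a 0-100% scale versus solvent-blank and untreated controls.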
COC(=O)c1nc(-c2cccc3c2OC(F)(F)O3)ccc1Cl [F242, Methyl 3-chloro-6-(2,2-difluorobenzo[d][1,3]dioxol-4-yl)picolinate] showed a pest or weed control at 140 g/ha of 0 to 29%. COC(=O)c1nc(-c2cc(F)c(C(F)(F)F)cc2Cl)c(Cl)cc1Cl [F246, Methyl 3,5-dichloro-6-(2-chloro-5-fluoro-4-(trifluoromethyl)phenyl)picolinate] was tested, and the pest or weed control at 140 g/ha was 0 to 29%.

Same assay, conditions: post-emergence, 336 h, IPOHE: ivy-leaf morning glory (Ipomoea hederacea), 140 g ai/ha, 14 days after application, read-out: Visual Growth Reduction (%) 14 Days After Application, IPOHE
Work on COC(=O)c1nc(-c2cccc3c2OC(F)(F)O3)ccc1Cl [F242, Methyl 3-chloro-6-(2,2-difluorobenzo[d][1,3]dioxol-4-yl)picolinate] yielded a pest or weed control at 140 g/ha of 0 to 29%. With COC(=O)c1nc(-c2cc(F)c(C(F)(F)F)cc2Cl)c(Cl)cc1Cl [F246, Methyl 3,5-dichloro-6-(2-chloro-5-fluoro-4-(trifluoromethyl)phenyl)picolinate] the pest or weed control at 140 g/ha was 95 to 100%.

Same assay, conditions: post-emergence, 336 h, KCHSC: kochia (Bassia scoparia), 140 g ai/ha, 14 days after application, read-out: Visual Growth Reduction (%) 14 Days After Application, KCHSC
Work on COC(=O)c1nc(-c2cccc3c2OC(F)(F)O3)ccc1Cl [F242, Methyl 3-chloro-6-(2,2-difluorobenzo[d][1,3]dioxol-4-yl)picolinate] yielded a pest or weed control at 140 g/ha of 0 to 29%. COC(=O)c1nc(-c2cc(F)c(C(F)(F)F)cc2Cl)c(Cl)cc1Cl [F246, Methyl 3,5-dichloro-6-(2-chloro-5-fluoro-4-(trifluoromethyl)phenyl)picolinate] showed a pest or weed control at 140 g/ha of 75 to 84%.

Same assay, conditions: post-emergence, 336 h, ORYSA: rice (Oryza sativa), 140 g ai/ha, 14 days after application, read-out: Visual Growth Reduction (%) 14 Days After Application, ORYSA
With COC(=O)c1nc(-c2cccc3c2OC(F)(F)O3)ccc1Cl [F242, Methyl 3-chloro-6-(2,2-difluorobenzo[d][1,3]dioxol-4-yl)picolinate] the pest or weed control at 140 g/ha was 0 to 29%. Work on COC(=O)c1nc(-c2cc(F)c(C(F)(F)F)cc2Cl)c(Cl)cc1Cl [F246, Methyl 3,5-dichloro-6-(2-chloro-5-fluoro-4-(trifluoromethyl)phenyl)picolinate] yielded a pest or weed control at 140 g/ha of 0 to 29%.

Same assay, conditions: post-emergence, 336 h, SETFA: giant foxtail (Setaria faberi), 140 g ai/ha, 14 days after application, read-out: Visual Growth Reduction (%) 14 Days After Application, SETFA
COC(=O)c1nc(-c2cccc3c2OC(F)(F)O3)ccc1Cl [F242, Methyl 3-chloro-6-(2,2-difluorobenzo[d][1,3]dioxol-4-yl)picolinate] gave a pest or weed control at 140 g/ha of 0 to 29%. COC(=O)c1nc(-c2cc(F)c(C(F)(F)F)cc2Cl)c(Cl)cc1Cl [F246, Methyl 3,5-dichloro-6-(2-chloro-5-fluoro-4-(trifluoromethyl)phenyl)picolinate] showed a pest or weed control at 140 g/ha of 75 to 84%.

Same assay, conditions: post-emergence, 336 h, SORVU: grain sorghum (Sorghum vulgare), 140 g ai/ha, 14 days after application, read-out: Visual Growth Reduction (%) 14 Days After Application, SORVU
COC(=O)c1nc(-c2cccc3c2OC(F)(F)O3)ccc1Cl [F242, Methyl 3-chloro-6-(2,2-difluorobenzo[d][1,3]dioxol-4-yl)picolinate] was tested, and the pest or weed control at 140 g/ha was 75 to 84%. Compound COC(=O)c1nc(-c2cc(F)c(C(F)(F)F)cc2Cl)c(Cl)cc1Cl [F246, Methyl 3,5-dichloro-6-(2-chloro-5-fluoro-4-(trifluoromethyl)phenyl)picolinate] has a pest or weed control at 140 g/ha of 95 to 100%.

Same assay, conditions: post-emergence, 336 h, STEME: common chickweed (Stellaria media), 140 g ai/ha, 14 days after application, read-out: Visual Growth Reduction (%) 14 Days After Application, STEME
COC(=O)c1nc(-c2cccc3c2OC(F)(F)O3)ccc1Cl [F242, Methyl 3-chloro-6-(2,2-difluorobenzo[d][1,3]dioxol-4-yl)picolinate] showed a pest or weed control at 140 g/ha of 0 to 29%. Work on COC(=O)c1nc(-c2cc(F)c(C(F)(F)F)cc2Cl)c(Cl)cc1Cl [F246, Methyl 3,5-dichloro-6-(2-chloro-5-fluoro-4-(trifluoromethyl)phenyl)picolinate] yielded a pest or weed control at 140 g/ha of 0 to 29%.

Same assay, conditions: post-emergence, 336 h, TRZAS: wheat, spring (Triticum aestivum), 140 g ai/ha, 14 days after application, read-out: Visual Growth Reduction (%) 14 Days After Application, TRZAS
COC(=O)c1nc(-c2cccc3c2OC(F)(F)O3)ccc1Cl [F242, Methyl 3-chloro-6-(2,2-difluorobenzo[d][1,3]dioxol-4-yl)picolinate] showed a pest or weed control at 140 g/ha of 0 to 29%. Compound COC(=O)c1nc(-c2cc(F)c(C(F)(F)F)cc2Cl)c(Cl)cc1Cl [F246, Methyl 3,5-dichloro-6-(2-chloro-5-fluoro-4-(trifluoromethyl)phenyl)picolinate] has a pest or weed control at 140 g/ha of 0 to 29%.

Same assay, conditions: post-emergence, 336 h, blackgrass (Alopecurus myosuroides), 14 Days After Application, 140 g ai/ha, read-out: Visual Growth Reduction (%) ALOMY
For COC(=O)c1nc(-c2cccc3c2OC(F)(F)O3)ccc1Cl [F242, Methyl 3-chloro-6-(2,2-difluorobenzo[d][1,3]dioxol-4-yl)picolinate], the pest or weed control at 140 g/ha was 0 to 29%. Work on COC(=O)c1nc(-c2cc(F)c(C(F)(F)F)cc2Cl)c(Cl)cc1Cl [F246, Methyl 3,5-dichloro-6-(2-chloro-5-fluoro-4-(trifluoromethyl)phenyl)picolinate] yielded a pest or weed control at 140 g/ha of 45 to 59%.

Same assay, conditions: post-emergence, 336 h, canada thistle (Cirsium arvense), 14 Days After Application, 140 g ai/ha, read-out: Visual Growth Reduction (%) CIRAR
COC(=O)c1nc(-c2cccc3c2OC(F)(F)O3)ccc1Cl [F242, Methyl 3-chloro-6-(2,2-difluorobenzo[d][1,3]dioxol-4-yl)picolinate] was tested, and the pest or weed control at 140 g/ha was 0 to 29%. COC(=O)c1nc(-c2cc(F)c(C(F)(F)F)cc2Cl)c(Cl)cc1Cl [F246, Methyl 3,5-dichloro-6-(2-chloro-5-fluoro-4-(trifluoromethyl)phenyl)picolinate] was tested, and the pest or weed control at 140 g/ha was 75 to 84%.

Same assay, conditions: post-emergence, 336 h, crabgrass (Digitaria sanguinalis), 14 Days After Application, 140 g ai/ha, read-out: Visual Growth Reduction (%) DIGSA
With COC(=O)c1nc(-c2cccc3c2OC(F)(F)O3)ccc1Cl [F242, Methyl 3-chloro-6-(2,2-difluorobenzo[d][1,3]dioxol-4-yl)picolinate] the pest or weed control at 140 g/ha was 0 to 29%. COC(=O)c1nc(-c2cc(F)c(C(F)(F)F)cc2Cl)c(Cl)cc1Cl [F246, Methyl 3,5-dichloro-6-(2-chloro-5-fluoro-4-(trifluoromethyl)phenyl)picolinate] gave a pest or weed control at 140 g/ha of 85 to 94%.

Same assay, conditions: post-emergence, 336 h, lambsquarters (Chenopodium album), 14 Days After Application, 140 g ai/ha, read-out: Visual Growth Reduction (%) CHEAL
Compound COC(=O)c1nc(-c2cccc3c2OC(F)(F)O3)ccc1Cl [F242, Methyl 3-chloro-6-(2,2-difluorobenzo[d][1,3]dioxol-4-yl)picolinate] has a pest or weed control at 140 g/ha of 60 to 74%. Work on COC(=O)c1nc(-c2cc(F)c(C(F)(F)F)cc2Cl)c(Cl)cc1Cl [F246, Methyl 3,5-dichloro-6-(2-chloro-5-fluoro-4-(trifluoromethyl)phenyl)picolinate] yielded a pest or weed control at 140 g/ha of 95 to 100%.

Same assay, conditions: post-emergence, 336 h, redroot pigweed (Amaranthus retroflexus), 14 Days After Application, 140 g ai/ha, read-out: Visual Growth Reduction (%) AMARE
COC(=O)c1nc(-c2cccc3c2OC(F)(F)O3)ccc1Cl [F242, Methyl 3-chloro-6-(2,2-difluorobenzo[d][1,3]dioxol-4-yl)picolinate] gave a pest or weed control at 140 g/ha of 0 to 29%. With COC(=O)c1nc(-c2cc(F)c(C(F)(F)F)cc2Cl)c(Cl)cc1Cl [F246, Methyl 3,5-dichloro-6-(2-chloro-5-fluoro-4-(trifluoromethyl)phenyl)picolinate] the pest or weed control at 140 g/ha was 95 to 100%.

Same assay, conditions: post-emergence, 336 h, wild oat (Avena fatua), 14 Days After Application, 140 g ai/ha, read-out: Visual Growth Reduction (%) AVEFA
COC(=O)c1nc(-c2cccc3c2OC(F)(F)O3)ccc1Cl [F242, Methyl 3-chloro-6-(2,2-difluorobenzo[d][1,3]dioxol-4-yl)picolinate] gave a pest or weed control at 140 g/ha of 0 to 29%. COC(=O)c1nc(-c2cc(F)c(C(F)(F)F)cc2Cl)c(Cl)cc1Cl [F246, Methyl 3,5-dichloro-6-(2-chloro-5-fluoro-4-(trifluoromethyl)phenyl)picolinate] showed a pest or weed control at 140 g/ha of 0 to 29%.

Same assay, conditions: post-emergence, 336 h, yellow nutsedge (Cyperus esculentus), 14 Days After Application, 140 g ai/ha, read-out: Visual Growth Reduction (%) CYPES
COC(=O)c1nc(-c2cccc3c2OC(F)(F)O3)ccc1Cl [F242, Methyl 3-chloro-6-(2,2-difluorobenzo[d][1,3]dioxol-4-yl)picolinate] was tested, and the pest or weed control at 140 g/ha was 0 to 29%. COC(=O)c1nc(-c2cc(F)c(C(F)(F)F)cc2Cl)c(Cl)cc1Cl [F246, Methyl 3,5-dichloro-6-(2-chloro-5-fluoro-4-(trifluoromethyl)phenyl)picolinate] showed a pest or weed control at 140 g/ha of 60 to 74%.

From patent US20230017045A1, “PYRIDINE AND PYRIMIDINE CARBOXYLATE HERBICIDES AND METHODS OF USE THEREOF” (Dow AgroSciences LLC, priority 2017, published 2023)
